# Experiments:
# A. baumannii 4123 = assay: Effective dose (ED50, ED95) in bacteremia infection mouse model; assay type: in vivo; conditions: Acinetobacter baumannii, 4123, ip; immunosuppressed mice, intraperitoneal 1.0 and 6.0 hours after infection, survival 7.0 days, BLISS method; read-out: ED50 (effective dose that cures 50% infected mice)
# Protocol: In this regard, immunosuppressed mice were used for the following in vivo studies. Immunosuppression was induced by intraperitoneal injection of 200 mg/kg cyclophosphamide 4 days prior to infection. The mice were anesthetized by intraperitoneal injection of 1% pentobarbital (40 mg/kg, sigma). The mice were then infected with A. baumannii 4123 to determine the minimum lethal dose for subsequent effective dose and efficacy testing. Briefly, overnight cultures of A. baumannii 4123 were harvested and suspended in phosphate-buffered saline (PBS). Subsequently, the cyclophosphamide-pretreated mice were injected with 0.3 mL of the bacterial suspension at designated doses (e.g., 1.0×10^8, 2.5×10^8, 5×10^8, 1.0×10^9, 2.0×10^9 CFU/mL, six mice per group) via the tail vein. The minimum lethal dose, the lowest concentration sufficient to cause 100% mortality, was determined from the survival rate of mice at 48 hours post-infection by the BLISS method.
# Firstly, a bacterial suspension with the minimum lethal dose (0.3 mL) was introduced to the above described cyclophosphamide-pretreated mice via the tail vein. […] The number of surviving mice in each group was recorded for 7.0 days to estimate ED50 and ED95 via the BLISS method.
# [1] = test system: clinically isolated MDR K. pneumoniae, E. coli, A. baumannii and MRSA strains; assay: MIC by broth microdilution against different types and strains of clinically isolated MDR bacteria; assay type: cell-based; conditions: MIC comparison
# Protocol: To facilitate comparison, an antimicrobial guanidinium-based macromolecule without a sugar functional group (identified herein as Dp20), as well as strong antibiotics (including imipenem, vancomycin, ceftriaxone, and gentamycin), were also tested against the clinically isolated pathogens. The MDR clinical isolates were obtained from patients' blood and phlegm. All isolates were identified by routine laboratory methods and stored in 20% (v/v) glycerol at 80° C.
# In accordance with the broth microdilution method, MDR microbes including one or more strains of K. pneumoniae, E. coli, A. baumannii, and MRSA were harvested in midexponential growth phase after grown overnight in Mueller-Hinton (MH) agar plates at 37° C. The antimicrobial agents were prepared in Mueller Hinton broth (MHB) at various concentrations. The bacteria suspensions were then diluted with phosphate-buffer saline (PBS), with a potential of Hydrogen (PH) of 7.4) to adjust the turbidity approximately to the Standard McFarland 0.6, which corresponds to the concentration of 1×10^8 colony-forming unit (CFU) per mL (CFU/mL, after which the bacteria suspension was further diluted by 100-fold with MHB (1×10^6 CFU/mL). Subsequently, equal volumes (100 μL) of bacterial suspension and agent solution prepared previously were mixed in each well of a 96-well plate and incubated for 18 hours at 37° C. […]
Compound,ED50 (A. baumannii 4123),spectrum of efficacy (Gram-negative / Gram-positive strains) [1]
C[C@@H](O)[C@H]1C(=O)N2C(C(=O)O)=C(SCCN=CN)C[C@H]12 [imipenem],6.1 mg/kg,–
CN[C@H](CC(C)C)C(=O)N[C@H]1C(=O)N[C@@H](CC(N)=O)C(=O)N[C@H]2C(=O)N[C@H]3C(=O)N[C@H](C(=O)N[C@H](C(=O)O)c4cc(O)cc(O)c4-c4cc3ccc4O)[C@H](O)c3ccc(c(Cl)c3)Oc3cc2cc(c3O[C@@H]2O[C@H](CO)[C@@H](O)[C@H](O)[C@H]2O[C@H]2C[C@](C)(N)[C@H](O)[C@H](C)O2)Oc2ccc(cc2Cl)[C@H]1O [vancomycin],–,only demonstrated efficacy Gram-positive strains

# Reference: patent US12036236B2, “Antimicrobial guanidinium macromolecules with bacteria targeting moieties” (International Business Machines Corporation, priority 2018, dated 2024)
